In one experiment the target is T1, p38 alpha (Homo sapiens, UniProt Q16539).
T1 construct: purchased Invitrogen PV3304
Kind of experiment: P38 alpha enzyme inhibition assay (Alphascreen kinase activity assay). Format: biochemical. The settings on record: 100 pM p38 alpha, 2 hours preincubation at 25° C., 250 μM ATP, ATF-2 fusion protein; read-out: p38α inhibition. The method in brief:
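100 pM p38 alpha preincubated 2 h at 25 °C with compound and 0.3 μg/ml ATF-2 fusion substrate (HEPES pH 7.5, MgCl2, 1% DMSO). Reaction started with 250 μM ATP, run 1 h at 25 °C, stopped with EDTA; phospho-ATF2 detected by AlphaScreen luminescence. IC50 from concentration-response curves.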
Background: Bead proximity is the source of the signal in Alpha formats.

Experiment [1] deals with Peripheral Blood Mononuclear Cells (PBMCs), TNFα release. Kind of experiment: LPS-stimulated PBMC TNFα release assay. Format: cell-based. The settings on record: human PBMC, LPS (10 ng/ml), 18 h, compound 1 h before LPS; read-out: LPS-stimulated PBMC TNFα release inhibition. In a few lines: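 Human PBMCs from healthy donors, serum-starved 3 h, then pre-incubated 1 h at 37 °C with compound in 1% FBS medium before LPS (10 ng/ml) for 18 h. Supernatant TNFα measured by MSD; IC50 from dose-response as % inhibition of control, at least three experiments.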

The source of these data is US10364245B2 (CHIESI FARMACEUTICI S.p.A., priority 2017, dated 2019).

The structures appear in SMILES notation. Bounds are passed on as bounds.

T1 sequence (Q16539 whole entry): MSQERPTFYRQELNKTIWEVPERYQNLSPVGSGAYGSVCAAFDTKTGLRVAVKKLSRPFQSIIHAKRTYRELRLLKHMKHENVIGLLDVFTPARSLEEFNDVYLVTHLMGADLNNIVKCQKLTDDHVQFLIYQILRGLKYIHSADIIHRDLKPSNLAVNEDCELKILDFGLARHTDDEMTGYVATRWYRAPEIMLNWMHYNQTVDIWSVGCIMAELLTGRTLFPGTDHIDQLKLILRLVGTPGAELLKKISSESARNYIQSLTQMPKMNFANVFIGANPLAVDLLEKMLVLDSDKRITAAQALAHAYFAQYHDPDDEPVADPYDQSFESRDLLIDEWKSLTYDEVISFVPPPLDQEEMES

Turning to `COCC(C)(C)c1nnc2ccc(O[C@@H]3CC[C@H](NC(=O)Nc4cc(C(C)(C)C)nc(C(=O)NCCCN5CCOCC5)n4)c4ccccc43)cn12` [Example 121, 4-(tert-butyl)-6-(3-((1S,4R)-4-((3-(1-methoxy-2-methylpropan-2-yl)-[1,2,4]triazolo[4,3-a]pyridin-6-yl)oxy)-1,2,3,4-tetrahydronaphthalen-1-yl)ureido)-N-(3-morpholinopropyl)-pyrimidine-2-carboxamide], the IC50 at p38 alpha is < 1 nM; in experiment [1], 1 to 5 nM.

Regarding `COCC(C)(C)c1nnc2ccc(O[C@@H]3CC[C@H](NC(=O)Nc4cc(C(C)(C)C)nc(C(=O)NCCN5CCCOCC5)n4)c4ccccc43)cn12` [Example 122, N-(2-(1,4-oxazepan-4-yl)ethyl)-4-(tert-butyl)-6-(3-((1S,4R)-4-((3-(1-methoxy-2-methylpropan-2-yl)-[1,2,4]triazolo[4,3-a]pyridin-6-yl)oxy)-1,2,3,4-tetrahydronaphthalen-1-yl)ureido)pyrimidine-2-carboxamide], the values for the IC50 (on p38 alpha; in experiment [1]) were < 1 nM and 1 to 5 nM, respectively.

With `COCC(C)(C)c1nnc2ccc(O[C@@H]3CC[C@H](NC(=O)Nc4cc(C(C)(C)C)nc(C(=O)NCCN(C)CCO)n4)c4ccccc43)cn12` [Example 123, 4-(tert-butyl)-N-(2-((2-hydroxyethyl)(methyl)-amino)ethyl)-6-(3-((1S,4R)-4-((3-(1-methoxy-2-methylpropan-2-yl)-[1,2,4]triazolo[4,3-a]pyridin-6-yl)oxy)-1,2,3,4-tetrahydronaphthalen-1-yl)ureido)pyrimidine-2-carboxamide], the IC50 on p38 alpha was < 1 nM; in experiment [1], 1 to 5 nM.

Consider `COC(C)(C)c1nnc2ccc(O[C@@H]3CC[C@H](NC(=O)Nc4cc(C(C)(C)C)nc(C(=O)NCCCN5CCOCC5)n4)c4ccccc43)cn12` [Example 124], for which the IC50 at p38 alpha is 1 to 10 nM; in experiment [1] it was 1 to 5 nM.

On to `COC(C)(C)c1nnc2ccc(O[C@@H]3CC[C@H](NC(=O)Nc4cc(C(C)(C)C)nc(C(=O)NCCN(C)CCO)n4)c4ccccc43)cn12` [Example 125, 4-(tert-butyl)-N-(2-((2-hydroxyethyl)(methyl)-amino)ethyl)-6-(3-((1S,4R)-4-((3-(2-methoxypropan-2-yl)-[1,2,4]triazolo[4,3-a]pyridin-6-yl)oxy)-1,2,3,4-tetrahydronaphthalen-1-yl)ureido)pyrimidine-2-carboxamide], for which the IC50 at p38 alpha was 1 to 10 nM; in experiment [1], > 5 nM.

Consider `CN1CC(C(=O)NCc2nc(NC(=O)N[C@H]3CC[C@@H](Oc4ccc5nnc(C(C)(C)C)n5c4)c4ccccc43)cc(C(C)(C)C)n2)C1` [Example 126, N-((4-(tert-butyl)-6-(3-((1S,4R)-4-((3-(tert-butyl)-[1,2,4]triazolo[4,3-a]pyridin-6-yl)oxy)-1,2,3,4-tetrahydronaphthalen-1-yl)ureido)pyrimidin-2-yl)methyl)-1-methylazetidine-3-carboxamide], for which the figures for the IC50 (at p38 alpha; in experiment [1]) were < 1 nM and > 5 nM, respectively.

As to `CN(C)CCC(=O)NCc1nc(NC(=O)N[C@H]2CC[C@@H](Oc3ccc4nnc(C(C)(C)C)n4c3)c3ccccc32)cc(C(C)(C)C)n1` [Example 127, N-((4-(tert-butyl)-6-(3-((1S,4R)-4-((3-(tert-butyl)-[1,2,4]triazolo[4,3-a]pyridin-6-yl)oxy)-1,2,3,4-tetrahydronaphthalen-1-yl)ureido)pyrimidin-2-yl)methyl)-3-(dimethylamino)-propanamide], the IC50 on p38 alpha is < 1 nM; in experiment [1], > 5 nM.

For `CN1CCN(C(=O)c2nc(NC(=O)N[C@H]3CC[C@@H](Oc4ccc5nnc(C(C)(C)C)n5c4)c4ccccc43)cc(C(C)(C)C)n2)CC1` [Example 128, 1-(6-(tert-butyl)-2-(4-methylpiperazine-1-carbonyl)pyrimidin-4-yl)-3-((1S,4R)-4-((3-(tert-butyl)-[1,2,4]triazolo[4,3-a]pyridin-6-yl)oxy)-1,2,3,4-tetrahydronaphthalen-1-yl)urea], the IC50 was < 1 nM on p38 alpha and > 5 nM in experiment [1].
